Experimental data from patent US11591336B2 (Relay Therapeutics, Inc., priority 2017, dated 2023).
Counter-ions that a name gives are not always drawn.

Target: SHP2 (Homo sapiens (Human), UniProt Q06124)
Assay: SHP2 Allosteric Inhibition Assay (DiFMUP prompt fluorescence)
Format: biochemical
Conditions: 0.25 nM SHP2 activated with 0.5 μM peptide IRS1_pY1172(dPEG8)pY1222; substrate DiFMUP 100 μM; 25° C.

Chain of SHP2 (Q06124 whole entry): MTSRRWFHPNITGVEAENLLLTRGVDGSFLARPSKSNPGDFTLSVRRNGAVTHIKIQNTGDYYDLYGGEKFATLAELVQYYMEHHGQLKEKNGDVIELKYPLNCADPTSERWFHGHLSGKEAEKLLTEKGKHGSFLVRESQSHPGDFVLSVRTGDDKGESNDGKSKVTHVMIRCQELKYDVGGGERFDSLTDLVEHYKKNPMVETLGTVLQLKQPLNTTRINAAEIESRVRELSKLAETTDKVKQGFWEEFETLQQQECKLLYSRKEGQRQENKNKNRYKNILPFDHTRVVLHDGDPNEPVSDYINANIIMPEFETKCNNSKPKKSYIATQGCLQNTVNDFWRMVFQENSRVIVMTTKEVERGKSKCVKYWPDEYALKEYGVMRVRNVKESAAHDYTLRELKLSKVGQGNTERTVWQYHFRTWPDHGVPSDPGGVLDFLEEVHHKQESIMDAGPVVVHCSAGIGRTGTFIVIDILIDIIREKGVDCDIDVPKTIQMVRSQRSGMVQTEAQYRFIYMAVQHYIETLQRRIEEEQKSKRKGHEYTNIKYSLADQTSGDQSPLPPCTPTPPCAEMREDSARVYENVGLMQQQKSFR

SMILES: CC1(N)CCN(c2cnc3c(N4CCCc5c(-c6nccs6)cccc54)n[nH]c3n2)CC1 [Compound 64]
- IC50: < 1000 nM

SMILES: C[C@@H]1OCC2(CCN(c3cnc4c(N5CCN([C@@H]6CCOC6)c6cc(C#N)ccc65)n[nH]c4n3)CC2)[C@@H]1N [Compound 403]
- IC50: < 1000 nM

SMILES: C[C@@H]1CCN(c2n[nH]c3nc(N4CCC5(CC4)CO[C@@H](C)[C@H]5N)cnc23)c2ccc(-c3noc(=O)[nH]3)nc21 (relative stereo) [Compound 450, 3-[(8R*)-5-{6-[(3S,4S)-4-amino-3-methyl-2-oxa-8-azaspiro[4.5]decan-8-yl]-1H-pyrazolo[3,4-b]pyrazin-3-yl}-8-methyl-5,6,7,8-tetrahydro-1,5-naphthyridin-2-yl]-4,5-dihydro-1,2,4-oxadiazol-5-one]
- IC50: < 1000 nM

SMILES: Cc1nc(-c2ccc3c(n2)CCCN3c2n[nH]c3nc(N4CCC5(CC4)CO[C@@H](C)[C@H]5N)cnc23)no1 [Compound 319, (3S,4S)-3-methyl-8-(3-[6-(5-methyl-1,2,4-oxadiazol-3-yl)-1,2,3,4-tetrahydro-1,5-naphthyridin-1-yl]-1H-pyrazolo[3,4-b]pyrazin-6-yl)-2-oxa-8-azaspiro[4.5]decan-4-amine; formic acid]
- IC50: < 1000 nM

SMILES: C[C@@H]1OCC2(CCN(c3cnc4c(N5CCCc6nc(-c7cnccn7)ccc65)n[nH]c4n3)CC2)[C@@H]1N [Compound 350]
- IC50: < 1000 nM

SMILES: C[C@@H]1OCC2(CCN(c3cnc4c(N5CC[C@H](C(F)F)c6cc(C#N)ccc65)n[nH]c4n3)CC2)[C@@H]1N [Compound 327]
- IC50: < 1000 nM

SMILES: C[C@@H]1OCC2(CCN(c3cnc4c(N5CCc6cccc(-c7cnn(C)c7)c6C5)n[nH]c4n3)CC2)[C@@H]1N [Compound 358]
- IC50: ≥ 10000 nM

SMILES: C[C@@H]1OCC2(CCN(c3cnc4c(N5CCC(=C(F)F)c6ccccc65)n[nH]c4n3)CC2)[C@@H]1N [Compound 231]
- IC50: < 1000 nM

SMILES: CC1(CN)CCN(c2cnc3c(N4CCCc5c(C6CC6)cccc54)n[nH]c3n2)CC1 [Compound 86]
- IC50: < 1000 nM

SMILES: Cc1cccc2c1N(C)CCN2c1n[nH]c2nc(N3CCC4(CC3)CO[C@@H](C)[C@H]4N)cnc12 [Compound 384]
- IC50: < 1000 nM

SMILES: Cn1cc(-c2ccc3c(n2)CCCN3c2n[nH]c3nc(N4CCC(C)(CN)CC4)cnc23)cn1 [Compound 182]
- IC50: < 1000 nM

SMILES: CC1(N)CCN(c2cnc3c(Sc4ccnc(N)c4F)n[nH]c3n2)CC1 [Compound 489, 4-((6-(4-amino-4-methylpiperidin-1-yl)-1H-pyrazolo[3,4-b]pyrazin-3-yl)thio)-3-fluoropyridin-2-amine]
- IC50: < 1000 nM

SMILES: c1ccc(CC2CCCCN2c2cnc3c(N4CCCc5ncccc54)n[nH]c3n2)cc1 (stereo not drawn) [Compound 161]
- IC50: ≥ 10000 nM

SMILES: CN1CCN(c2n[nH]c3nc(N4CCC(C)(CN)CC4)cnc23)c2ccc(Cl)nc21 [Compound 195]
- IC50: < 1000 nM

SMILES: CO[C@H]1C[C@@H](N2CCN(c3n[nH]c4nc(N5CCC6(CC5)CO[C@@H](C)[C@H]6N)cnc34)c3ccc(C#N)cc32)C1 [Compound 469]
- IC50: < 1000 nM

SMILES: CC(=O)N1CCN(c2n[nH]c3nc(N4CCC(C)(CN)CC4)cnc23)c2ccc(C#N)cc21 [Compound 187]
- IC50: < 1000 nM

SMILES: CC(C)NC(=O)c1ccc2c(n1)[C@H](C)CCN2c1n[nH]c2nc(N3CCC4(CC3)CO[C@@H](C)[C@H]4N)cnc12 [Compound 438]
- IC50: < 1000 nM

SMILES: C[C@@H](N)C1(C)CCN(c2cnc3c(N4CCCc5ncccc54)n[nH]c3n2)CC1 (single isomer, unassigned) [Compound 111]
- IC50: < 1000 nM

SMILES: Cn1cc(-c2ccc3c(n2)CCCN3c2n[nH]c3nc(N4CCC(C)(N)CC4)cnc23)cn1 [Compound 62]
- IC50: < 1000 nM

SMILES: CC1(CN)CCN(c2cnc3c(N4CCN(c5cccnc5)c5ccccc54)n[nH]c3n2)CC1 [Compound 68]
- IC50: < 1000 nM

SMILES: CC1(CN)CCN(c2cnc3c(N4CCCc5cccnc54)n[nH]c3n2)CC1 [Compound 40]
- IC50: 1000 to 10000 nM

SMILES: CNC(=O)c1ccc2c(c1)CCN2c1n[nH]c2nc(N3CCC(C)(CN)CC3)cnc12 [Compound 113, 1-(6-(4-(aminomethyl)-4-methylpiperidin-1-yl)-1H-pyrazolo[3,4-b]pyrazin-3-yl)-N-methylindoline-5-carboxamide]
- IC50: < 1000 nM

SMILES: C[C@@H]1OCC2(CCN(c3cnc4c(N5CCCc6c5ccnc6C#N)n[nH]c4n3)CC2)[C@@H]1N [Compound 228]
- IC50: < 1000 nM

SMILES: C=C(C)c1cccc2c1CCCN2c1n[nH]c2nc(N3CCC4(CC3)CO[C@@H](C)[C@H]4N)cnc12 [Compound 462]
- IC50: < 1000 nM

SMILES: Cc1nnc(-c2cccc3c2CCCN3c2n[nH]c3nc(N4CCC5(CC4)CO[C@@H](C)[C@H]5N)cnc23)o1 [Compound 389]
- IC50: < 1000 nM

SMILES: C[C@@H]1OCC2(CCN(c3cnc4c(N5CCc6cc(-c7cnn(C)c7)ccc6C5)n[nH]c4n3)CC2)[C@@H]1N [Compound 338]
- IC50: < 1000 nM

SMILES: CC1(CN)CCN(c2cnc3c(N4CCCc5c4ccnc5Cl)n[nH]c3n2)CC1 [Compound 132]
- IC50: < 1000 nM

SMILES: C[C@@H]1OCC2(CCN(c3cnc4c(N5CCCc6nc(-c7cnn(CCO)c7)ccc65)n[nH]c4n3)CC2)[C@@H]1N [Compound 351, 2-[4-(5-{6-[(3S,4S)-4-amino-3-methyl-2-oxa-8-azaspiro[4.5]decan-8-yl]-1H-pyrazolo[3,4-b]pyrazin-3-yl}-5,6,7,8-tetrahydro-1,5-naphthyridin-2-yl)-1H-pyrazol-1-yl]ethan-1-ol]
- IC50: < 1000 nM

SMILES: C[C@@H]1OCC2(CCN(c3cnc4c(N5CCCc6nc(C7=CCOC7)ccc65)n[nH]c4n3)CC2)[C@@H]1N [Compound 336]
- IC50: < 1000 nM

SMILES: N[C@H]1CCC[C@@]12CCN(c1cnc3c(N4CCCc5ncccc54)n[nH]c3n1)C2 (stereo in doubt) [Compound 205, rel-(5S,6S)-2-(3-(3,4-dihydro-1,5-naphthyridin-1(2H)-yl)-1H-pyrazolo[3,4-b]pyrazin-6-yl)-2-azaspiro[4.4]nonan-6-amine]
- IC50: 1000 to 10000 nM

SMILES: COC1(CN)CCN(c2cnc3c(N4CCCc5ncccc54)n[nH]c3n2)CC1 [Compound 101, (1-(3-(3,4-dihydro-1,5-naphthyridin-1(2H)-yl)-1H-pyrazolo[3,4-b]pyrazin-6-yl)-4-methoxypiperidin-4-yl)methanamine]
- IC50: < 1000 nM

SMILES: C[C@@H]1OCC2(CCN(c3cnc4c(N5CCCc6c5cccc6S(=O)(=O)C5CC5)n[nH]c4n3)CC2)[C@@H]1N [Compound 457]
- IC50: < 1000 nM

SMILES: N[C@H]1CCCC12CCN(c1cnc3c(N4CCCc5ncccc54)n[nH]c3n1)CC2 [Compound 211]
- IC50: < 1000 nM

SMILES: C[C@@H]1OCC2(CCN(c3cnc4c(N5CCN([C@H]6C[C@@](C)(O)C6)c6cc(C#N)ccc65)n[nH]c4n3)CC2)[C@@H]1N [Compound 526]
- IC50: < 1000 nM

SMILES: C[C@@H]1OCC2(CCN(c3cnc4c(N5CCCc6c(C#N)cccc65)n[nH]c4n3)CC2)[C@@H]1N [Compound 386]
- IC50: < 1000 nM

SMILES: CC1CCN(c2n[nH]c3nc(N4CCC5(CC4)CO[C@@H](C)[C@H]5N)cnc23)c2ccc(C(N)=O)nc21 (stereo in doubt) [Compound 264, (8S)-5-{6-[(3S,4S)-4-amino-3-methyl-2-oxa-8-azaspiro[4.5]decan-8-yl]-1H-pyrazolo[3,4-b]pyrazin-3-yl}-8-methyl-5,6,7,8-tetrahydro-1,5-naphthyridine-2-carboxamide]
- IC50: < 1000 nM

SMILES: COCCNC(=O)c1ccc2c(n1)C(C)CCN2c1n[nH]c2nc(N3CCC4(CC3)CO[C@@H](C)[C@H]4N)cnc12 (stereo in doubt) [Compound 437, (8S)-5-(6-[(3S,4S)-4-amino-3-methyl-2-oxa-8-azaspiro[4.5]decan-8-yl]-1H-pyrazolo[3,4-b]pyrazin-3-yl)-N-(2-methoxyethyl)-8-methyl-5,6,7,8-tetrahydro-1,5-naphthyridine-2-carboxamide hydrochloride]
- IC50: < 1000 nM

SMILES: CC1(N)CCN(c2cnc3c(Oc4ncccc4Cl)n[nH]c3n2)CC1 [Compound 502, 1-(3-((3-chloropyridin-2-yl)oxy)-1H-pyrazolo[3,4-b]pyrazin-6-yl)-4-methylpiperidin-4-amine dihydrochloride]
- IC50: < 1000 nM

SMILES: C[C@@H]1OCC2(CCN(c3cnc4c(N5CCCc6c5cccc6P(C)(C)=O)n[nH]c4n3)CC2)[C@@H]1N [Compound 369]
- IC50: < 1000 nM

SMILES: C[C@@H]1OCC2(CCN(c3cnc4c(N5CCc6ccccc6C5)n[nH]c4n3)CC2)[C@@H]1N [Compound 268]
- IC50: < 1000 nM

SMILES: C[C@@H]1OCC2(CCN(c3cnc4c(N5CCN(C)c6c(-c7cnn(C)c7)cccc65)n[nH]c4n3)CC2)[C@@H]1N [Compound 440]
- IC50: < 1000 nM

SMILES: NCC1(C(N)=O)CCN(c2cnc3c(N4CCCc5ncccc54)n[nH]c3n2)CC1 [Compound 180, 4-(aminomethyl)-1-(3-(3,4-dihydro-1,5-naphthyridin-1(2H)-yl)-1H-pyrazolo[3,4-b]pyrazin-6-yl)piperidine-4-carboxamide]
- IC50: < 1000 nM

SMILES: Cc1ccc2c(n1)CCCN2c1n[nH]c2nc(N3CCC4(CC3)CO[C@@H](C)[C@H]4N)cnc12 [Compound 292]
- IC50: < 1000 nM

SMILES: C[C@@H]1OCC2(CCN(c3cnc4c(N5CC[C@H](C)c6nc(-c7ccn[nH]7)ccc65)n[nH]c4n3)CC2)[C@@H]1N [Compound 430, (3S,4S)-3-methyl-8-{3-[(4S)-4-methyl-6-(1H-pyrazol-5-yl)-1,2,3,4-tetrahydro-1,5-naphthyridin-1-yl]-1H-pyrazolo[3,4-b]pyrazin-6-yl}-2-oxa-8-azaspiro[4.5]decan-4-amine]
- IC50: < 1000 nM

SMILES: CNC(=O)Cc1cccc2c1CCCN2c1n[nH]c2nc(N3CCC4(CC3)CO[C@@H](C)[C@H]4N)cnc12 [Compound 434, 2-(1-{6-[(3S,4S)-4-amino-3-methyl-2-oxa-8-azaspiro[4.5]decan-8-yl]-1H-pyrazolo[3,4-b]pyrazin-3-yl}-1,2,3,4-tetrahydroquinolin-5-yl)-N-methylacetamide hydrochloride]
- IC50: < 1000 nM

SMILES: c1ccc(C2CCN(c3cnc4c(N5CCCc6ncccc65)n[nH]c4n3)C2)cc1 (stereo not drawn) [Compound 151]
- IC50: ≥ 10000 nM

SMILES: CC1(CN)CCN(c2cnc3c(Oc4ccc5[nH]ccc5c4)n[nH]c3n2)CC1 [Compound 505, (1-(3-((1H-indol-5-yl)oxy)-1H-pyrazolo[3,4-b]pyrazin-6-yl)-4-methylpiperidin-4-yl)methanamine]
- IC50: 1000 to 10000 nM

SMILES: C[C@@H]1OCC2(CCN(c3cnc4c(N5CCN([C@H]6CCOC6)c6cc(C#N)ccc65)n[nH]c4n3)CC2)[C@@H]1N [Compound 402]
- IC50: < 1000 nM
